Reference: patent publication US20230107039A1, “SOFT CHEWABLE FORMED BODY FOR THE ADMINISTRATION TO ANIMALS” (Bayer Animal Health GmbH, priority 2020, published 2023)

Assay: Solubility in a mixture of water and glycerol
Type: physicochemical
Details: experimental studies, no figures given

solubility in a mixture of water and glycerol: high solubility
Structure (SMILES): O=C(C1CCCCC1)N1CC(=O)N2CCc3ccccc3C2C1 (racemic) [praziquantel, (RS)-2-(Cyclohexylcarbonyl)-2,3,4,6,7,11b-hexahydro-1H-pyrazino[2,1-a]isochinoline-4-on]
